Assay results taken from a melting point compilation (Tetko et al.).

Cc1cc(C)c2c(=O)n(C)c(S)nc2n1
melting point: 234 to 236 °C

CCOC(=O)NC(=S)Nc1ncccc1C
melting point: 124 to 126 °C

CCOC(=O)C1Cc2cc3c(cc2NC1=O)NC(=O)C(C(=O)OCC)C3 (configuration not stated)
melting point: 242 °C

C1=C(c2ccccc2)CCCC1
melting point: -11 °C

O=C(O)c1cc2cc(Cl)cc(Br)c2oc1=O
melting point: 206 to 208 °C

N#Cc1c(F)cccc1Oc1ccc(F)cc1
melting point: 73 to 74 °C

CCOC(=O)C1=C(C)NC(=O)NC1c1ccccc1[N+](=O)[O-] (configuration not stated)
melting point: 220 °C

Oc1ccc2c(O)c3ccccc3cc2c1O
melting point: 208 °C

NC(=S)NN=C1C(=O)Nc2ccccc21
melting point: 232 °C

CC(=O)c1ccc(C)cc1O
melting point: 21 °C

Brc1ccc(Oc2ccc(Br)c(Br)c2)cc1Br
melting point: 94 to 95 °C

CC(=O)NCC(=O)O
melting point: 207 to 209 °C

O=C(C1=NOC2C(=O)N(c3ccc(Br)cc3)C(=O)C12)c1ccco1 (configuration not stated)
melting point: 176 °C

O=[N+]([O-])c1cc(Br)cc2c1NCC2
melting point: 131 °C

Oc1c(F)cccc1Cl
melting point: 63 °C

Cc1ccc(NN=C2C(=O)NC(=S)NC2=O)cc1
melting point: 305 °C

CC(=O)c1ccc(F)cc1Br
melting point: 48 to 50 °C

O=C(O)c1ccc(Cl)cc1Br
melting point: 159 to 161 °C

CSc1nn2c(C(F)(F)F)cc(C(F)(F)F)nc2c1C(N)=O
melting point: 250 °C

CC(=O)OC(c1ccccc1)C(Cl)(Cl)Cl (configuration not stated)
melting point: 87.5 °C

CCCCCCCCCCCCCCCC(N)=O
melting point: 107 °C

COc1ccc([P+]2([S-])Nn3c(nnc3C(F)(F)F)S2)cc1 (configuration not stated)
melting point: 211 °C

Cc1cc(C)c2c(=O)n(-c3ccc(Cl)cc3)c(S)nc2n1
melting point: 324 to 326 °C

NC(=S)CS(=O)(=O)Cc1ccco1
melting point: 128 to 130 °C

Cn1cc(Cl)c(C=O)n1
melting point: 82 °C

Cc1ccccc1NC(=S)/C(=N\NC(=N)N)c1ccccc1
melting point: 206 to 207 °C

CSc1nc2ccccc2c(=O)n1C
melting point: 65 to 67 °C

O=C(Nc1ccccc1)c1cc2ccccc2cc1O
melting point: 248 °C

CCC(C)c1cc([N+](=O)[O-])cc([N+](=O)[O-])c1OC(C)=O (configuration not stated)
melting point: 26 °C

CCOc1cc(C)ccc1O
melting point: 30.5 °C

Cc1cc2c(o1)-c1c(oc3c(Br)cc(Br)cc13)CCC2C (configuration not stated)
melting point: 121 °C

O=C(O)CN1C(=O)CSC1=S
melting point: 147 °C

CCCCCCCCOC1OC(CO)C(O)C(O)C1O (configuration not stated)
melting point: 105 °C

CN(C)c1ccc(C=C2C(=O)OC(C)(C)OC2=O)cc1
melting point: 162 °C

Cc1c(Cl)c(C)c([N+](=O)[O-])c(O)c1Cl
melting point: 227 to 229 °C

CCCCCCCCCCCCOc1ccc(N=Cc2ccc(N(C)C)cc2)cc1
melting point: 94.5 °C

NCCCOCCCCOCCCN
melting point: 4.5 °C

Sc1nccs1
melting point: 78.5 °C

O=C(O)CCC(F)(F)C(F)(F)C(F)(F)C(F)(F)C(F)(F)C(F)(F)F
melting point: 62 to 64 °C

CCOc1cc(C=O)ccc1OC
melting point: 52 °C

c1ccc2c(c1)OCCOCCOCCOCCOc1ccccc1OCCO2
melting point: 48 to 52 °C

CC1CCC(C)C(C)C1C (configuration not stated)
melting point: -75 °C

O=C(CCCl)N1CCc2ccccc21
melting point: 83 to 85 °C

Cc1csc(N)c1C(N)=O
melting point: 174 °C

O=C1C=C(NCc2ccc(Cl)cc2)C(=O)c2ccccc21
melting point: 230 °C

CN1C(CSCC(F)(F)F)Nc2cc(Cl)c(S(N)(=O)=O)cc2S1(=O)=O (configuration not stated)
melting point: 214 °C

O=C(O)c1[nH]c2ccccc2c1Br
melting point: 185 to 188 °C

NCCN(CCN)N(O)N=O
melting point: 98 to 106 °C

O=C(O)C(F)=Cc1ccccc1
melting point: 158 °C

CS(=O)(=O)c1ccccc1S(=O)(=O)Cl
melting point: 133 to 138 °C

CC(C)(C)c1ccc(-c2cc(N)c(C(N)=O)s2)cc1
melting point: 244 to 248 °C

O=S(=O)(Cl)c1ccccc1C(F)(F)F
melting point: 23 °C
